Source: patent US8232401B2 (Japan Tobacco Inc., priority 2002, dated 2012)

Target: T1, HIV integrase (Human immunodeficiency virus type 1 group M subtype B, UniProt P12497, F1332H)
T1 construct: HIV integrase full length gene; made in house; host or cells: Escherichia coli BL21(DE3)
Experiment: Determination of enzyme (HIV integrase) inhibitory activity (strand transfer, microtiter plate, absorbance at 450 nm)
Type: biochemical, HIV (Human Immunodeficiency Virus (type 1))
Settings: recombinant HIV integrase (F185H) expressed in E. coli; donor DNA on streptavidin plate, digoxigenin target DNA; 37° C.
Method: The following explains evaluation methods of the HIV integrase inhibitory activity of the compound of the present invention.
(i) Construction of Recombinant Integrase Gene Expression System
(ii) Production and Purification of Integrase Protein
Escherichia coli recombinant BL21(DE3) transformed with plasmid pET21a-IN-F185H obtained in (i) was shake cultured at 30° C. in a liquid medium containing ampicillin. When the culture reached the logarithmic growth phase, isopropyl-β-D-thiogalactopyranoside was added to promote expression of integrase gene. The culture was continued for 3 hrs to promote accumulation of the integrase protein. The recombinant E. coli was collected in pellets by centrifugal separation and preserved at −80° C.
The E. coli was suspended in Lysis buffer (20 mM HEPES (pH 7.5), 5 mM DTT, 10 mM CHAPS, 10% glycerol) containing 1M sodium chloride and subjected to repeat pressurization and depressurization for rupture, and centrifugal separation at 4° C., 40,000×g, 60 min to recover a water-soluble fraction (supernatant). This was diluted 10-fold with Lysis buffer free of sodium chloride, mixed with SP-Sepharose (Pharmacia Corporation) and stirred at 4° C. for 60 min to allow adsorption of integrase protein to the resin. The resin was washed with Lysis buffer containing 100 mM sodium chloride and the integrase protein was eluted with Lysis buffer containing 1M sodium chloride.
The eluted integrase protein solution was applied to a Superdex 75 (Pharmacia Corporation) column for gel filtration. The protein was eluted with Lysis buffer containing 1M sodium chloride.
The obtained fractions of the integrate protein were collected and preserved at −80° C.
(iii) Preparation of DNA Solution
The following DNA synthesized by Greiner was dissolved in TE buffer (10 mM Tris-hydrochloric acid (pH 8.0), 1 mM EDTA) and mixed with donor DNA, target DNA, each complementary strand (+ and − strands) to 1 μM. The mixture was heated at 95° C. for 5 min, 80° C. for 10 min, 70° C. for 10 min, 60° C. for 10 min, 50° C. for 10 min and 40° C. for 10 min and preserved at 25° C. to give a double stranded DNA, which was used for the test. Donor DNA (− strand having biotin attached to the 5′ terminal)
(iv) Determination of Enzyme (HIV Integrase) Inhibitory activity
The donor DNA was diluted with TE buffer to 10 nM, of which 50 μl was added to each well of streptavidin-coated microtiter plate (Roche) and allowed to adsorb at 37° C. for 60 min. The DNA was washed with phosphate buffer (Dulbecco PBS, Sanko Junyaku Co., Ltd.) containing 0.1% Tween 20 and phosphate buffer. Then, a reaction mixture (70 μl) having the following composition, a test substance (10 μl) diluted with the reaction mixture and […] integrase protein (10 μl) were added to each well and reacted at 37° C. for 60 min.
Then, 50 nM target DNA (1.0 μl) was added, reacted at 37° C. for 10 min and washed with phosphate buffer containing 0.1% Tween 20 to stop the reaction.
Then, 100 mU/ml peroxidase labeled anti-digoxigenin antibody solution (Roche, 100 μl) was added, and the mixture was reacted at 37° C. for 60 min, followed by washing with phosphate buffer containing 0.1% Tween 20.
A peroxidase color solution (Bio Rad, 100 μl) was added and allowed to react at room temperature for 4 min. The color reaction was stopped by adding 1N sulfuric acid (100 μl). The absorbance at 450 nm was measured.
The HIV integrase inhibitory activity (IC50) of the compound of the present invention was calculated from the inhibition rate according to the following formula. […] Evaluation of Antiviral Activity

Structure (SMILES)	IC50 [nM]
O=C(O)c1cn(CCO)c2ccc(Cc3c(F)cccc3Cl)cc2c1=O [Example 1-33, 6-(2-Chloro-6-fluorobenzyl)-1-(2-hydroxyethyl)-4-oxo-1,4-dihydroquinoline-3-carboxylic acid]	140
O=C(O)c1cn(CCCCCO)c2ccc(Cc3cccc(Cl)c3Cl)cc2c1=O [Example 1-34, 6-(2,3-Dichlorobenzyl)-1-(5-hydroxypentyl)-4-oxo-1,4-dihydroquinoline-3-carboxylic acid]	350
Cn1cc(C(=O)O)c(=O)c2cc(Cc3cccc(Cl)c3Cl)ccc21 [Example 1-36, 6-(2,3-Dichlorobenzyl)-1-methyl-4-oxo-1,4-dihydroquinoline-3-carboxylic acid]	180
CCn1cc(C(=O)O)c(=O)c2cc(Cc3cccc(Cl)c3Cl)ccc21 [Example 1-37, 6-(2,3-Dichlorobenzyl)-1-ethyl-4-oxo-1,4-dihydroquinoline-3-carboxylic acid]	110
CCCn1cc(C(=O)O)c(=O)c2cc(Cc3cccc(Cl)c3Cl)ccc21 [Example 1-38, 6-(2,3-Dichlorobenzyl)-4-oxo-1-propyl-1,4-dihydroquinoline-3-carboxylic acid]	170
CCCCn1cc(C(=O)O)c(=O)c2cc(Cc3cccc(Cl)c3Cl)ccc21 [Example 1-39, 1-Butyl-6-(2,3-Dichlorobenzyl)-4-oxo-1,4-dihydroquinoline-3-carboxylic acid]	180
O=C(O)c1cn(CC2CCCC2)c2ccc(Cc3cccc(Cl)c3Cl)cc2c1=O [Example 1-40, 1-Cyclopentylmethyl-6-(2,3-dichlorobenzyl)-4-oxo-1,4-dihydroquinoline-3-carboxylic acid]	110
CS(=O)(=O)CCn1cc(C(=O)O)c(=O)c2cc(Cc3cccc(Cl)c3Cl)ccc21 [Example 1-41, 6-(2,3-Dichlorobenzyl)-1-(2-methanesulfonylethyl)-4-oxo-1,4-dihydroquinoline-3-carboxylic acid]	210
O=C(O)c1cn(CC2CCCCC2)c2ccc(Cc3cccc(Cl)c3Cl)cc2c1=O [Example 1-42, 1-Cyclohexylmethyl-6-(2,3-dichlorobenzyl)-4-oxo-1,4-dihydroquinoline-3-carboxylic acid]	130
O=C(O)c1cn(CC(O)c2ccccc2)c2ccc(Cc3cccc(Cl)c3Cl)cc2c1=O (stereo not shown) [Example 1-43, 6-(2,3-Dichlorobenzyl)-1-(2-hydroxy-2-phenylethyl)-4-oxo-1,4-dihydroquinoline-3-carboxylic acid]	24
O=C(O)c1cn(CCF)c2ccc(Cc3cccc(Cl)c3Cl)cc2c1=O [Example 1-44, 6-(2,3-Dichlorobenzyl)-1-(2-fluoroethyl)-4-oxo-1,4-dihydroquinoline-3-carboxylic acid]	51
O=C(O)c1cn(CCc2ccccn2)c2ccc(Cc3cccc(Cl)c3Cl)cc2c1=O [Example 1-45, 6-(2,3-Dichlorobenzyl)-4-oxo-1-(2-pyridin-2-ylethyl)-1,4-dihydroquinoline-3-carboxylic acid]	210
NCCn1cc(C(=O)O)c(=O)c2cc(Cc3cccc(Cl)c3Cl)ccc21 [Example 1-46, 1-(2-Aminoethyl)-6-(2,3-dichlorobenzyl)-4-oxo-1,4-dihydroquinoline-3-carboxylic acid]	420
CC(C)(O)Cn1cc(C(=O)O)c(=O)c2cc(Cc3cccc(Cl)c3Cl)ccc21 [Example 1-47, 6-(2,3-Dichlorobenzyl)-1-(2-hydroxy-2-methylpropyl)-4-oxo-1,4-dihydroquinoline-3-carboxylic acid]	98
CC(=O)NCCn1cc(C(=O)O)c(=O)c2cc(Cc3cccc(Cl)c3Cl)ccc21 [Example 1-48, 1-(2-Acetylaminoethyl)-6-(2,3-dichlorobenzyl)-4-oxo-1,4-dihydroquinoline-3-carboxylic acid]	380
CCOC(=O)NCCn1cc(C(=O)O)c(=O)c2cc(Cc3cccc(Cl)c3Cl)ccc21 [Example 1-49, 6-(2,3-Dichlorobenzyl)-1-(2-ethoxycarbonylaminoethyl)-4-oxo-1,4-dihydroquinoline-3-carboxylic acid]	53

Structure (SMILES)	IC50 [nM]
O=C(O)c1cn(CCO)c2ccc(Cc3cccc(F)c3F)cc2c1=O [Example 1-50, 6-(2,3-Difluorobenzyl)-1-(2-hydroxyethyl)-4-oxo-1,4-dihydroquinoline-3-carboxylic acid]	110
O=C(O)c1cn(CCO)c2ccc(Cc3ccc(F)cc3Cl)cc2c1=O [Example 1-51, 6-(2-Chloro-4-fluorobenzyl)-1-(2-hydroxyethyl)-4-oxo-1,4-dihydroquinoline-3-carboxylic acid]	180
O=C(O)c1cn(CCO)c2ccc(Cc3cccc(Cl)c3Cl)cc2c1=O [Example 1-63]	20
O=C(O)c1cn(CCO)c2ccc(Cc3c(F)cccc3Cl)cc2c1=O [Example 1-64]	56
O=C(O)c1cn(CCc2ccccc2)c2ccc(Cc3ccccc3Cl)cc2c1=O [Example 1-65, 6-(2-Chlorobenzyl)-4-oxo-1-phenethyl-1,4-dihydroquinoline-3-carboxylic acid]	120
O=C(O)c1cn(CCO)c2ccc(Cc3cccc(F)c3Cl)cc2c1=O [Example 1-66, 6-(2-Chloro-3-fluorobenzyl)-1-(2-hydroxyethyl)-4-oxo-1,4-dihydroquinoline-3-carboxylic acid]	49
O=C(O)c1cn(CCO)c2ccc(Cc3cccc([N+](=O)[O-])c3)cc2c1=O [Example 1-67]	790
CSCn1cc(C(=O)O)c(=O)c2cc(Cc3cccc(Cl)c3Cl)ccc21 [Example 1-68, 6-(2,3-Dichlorobenzyl)-1-methylsulfanylmethyl-4-oxo-1,4-dihydroquinoline-3-carboxylic acid]	49
CS(=O)(=O)Cn1cc(C(=O)O)c(=O)c2cc(Cc3cccc(Cl)c3Cl)ccc21 [Example 1-69, 6-(2,3-Dichlorobenzyl)-1-methanesulfonylmethyl-4-oxo-1,4-dihydroquinoline-3-carboxylic acid]	74
CC(C)(C)NS(=O)(=O)Cn1cc(C(=O)O)c(=O)c2cc(Cc3cccc(Cl)c3Cl)ccc21 [Example 1-70, 1-tert-Butylsulfamoylmethyl-6-(2,3-dichlorobenzyl)-4-oxo-1,4-dihydroquinoline-3-carboxylic acid]	82
CNS(=O)(=O)Cn1cc(C(=O)O)c(=O)c2cc(Cc3cccc(Cl)c3Cl)ccc21 [Example 1-71, 6-(2,3-Dichlorobenzyl)-1-methylsulfamoylmethyl-4-oxo-1,4-dihydroquinoline-3-carboxylic acid]	13
CN(C)S(=O)(=O)Cn1cc(C(=O)O)c(=O)c2cc(Cc3cccc(Cl)c3Cl)ccc21 [Example 1-72, 6-(2,3-Dichlorobenzyl)-1-dimethylsulfamoylmethyl-4-oxo-1,4-dihydroquinoline-3-carboxylic acid]	25
O=C(O)c1cn(CCO)c2ccc(Cc3c(F)ccc(F)c3Cl)cc2c1=O [Example 1-73, 6-(2-Chloro-3,6-difluorobenzyl)-1-(2-hydroxyethyl)-4-oxo-1,4-dihydroquinoline-3-carboxylic acid]	31
O=C(O)c1cn(CC(O)CO)c2ccc(Cc3cccc(Cl)c3Cl)cc2c1=O (stereo not shown) [Example 1-74, 6-(2,3-Dichlorobenzyl)-1-(2,3-Dihydroxypropyl)-4-oxo-1,4-dihydroquinoline-3-carboxylic acid]	98
NS(=O)(=O)Cn1cc(C(=O)O)c(=O)c2cc(Cc3c(F)cccc3Cl)ccc21 [Example 1-75, 6-(2-Chloro-6-fluorobenzyl)-1-sulfamoylmethyl-4-oxo-1,4-dihydroquinoline-3-carboxylic acid]	16
